Laboratory results from the supplement of paper PMC10307832.

How the values were obtained:
Assay in all cases: relative viability (nuclei count vs DMSO), 5 days (fraction); higher = more cells survive
[1] = tested on: LU99A
Procedure, shortened: (§1)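 Relative viability is defined as nuclei in treated wells over nuclei in vehicle wells. Duplicate plates were run and medians reported. Lung cancer cell lines in 1536-well plates were dosed by pin tool one day after seeding, with one drug or with a fixed anchor-drug dose plus five library-drug doses (not always all listed) in √10 steps, and nuclei were counted after 5 days.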

[2] = tested on: NCI-H1993
Procedure, shortened: as §1

[3] = tested on: LC-2-ad
Procedure, shortened: as §1

[4] = tested on: NCI-H2085
Procedure, shortened: as §1

[5] = tested on: UMC-11
Procedure, shortened: as §1

[6] = tested on: NCI-H2023
Procedure, shortened: as §1

[7] = tested on: NCI-H1651
Procedure, shortened: as §1

[8] = tested on: NCI-H2126
Procedure, shortened: as §1

[9] = tested on: ABC-1
Procedure, shortened: as §1

[10] = tested on: EPLC-272H
Procedure, shortened: as §1

[11] = tested on: COR-L23
Procedure, shortened: as §1

[12] = tested on: NCI-H358
Procedure, shortened: as §1

[13] = tested on: NCI-H838
Procedure, shortened: as §1

[14] = tested on: NCI-H1915
Procedure, shortened: as §1

[15] = tested on: NCI-H650
Procedure, shortened: as §1

[16] = tested on: SW 1573
Procedure, shortened: as §1

[17] = tested on: HARA
Procedure, shortened: as §1

[18] = tested on: PC-14
Procedure, shortened: as §1

[19] = tested on: HCC-78
Procedure, shortened: as §1

[20] = tested on: HCC-15
Procedure, shortened: as §1

[21] = tested on: NCI-H2347
Procedure, shortened: as §1

[22] = tested on: NCI-H1355
Procedure, shortened: as §1

`CC1(C)CCC(c2ccc(Cl)cc2)=C(CN2CCN(c3ccc(C(=O)NS(=O)(=O)c4ccc(N[C@H](CCN5CCOCC5)CSc5ccccc5)c(S(=O)(=O)C(F)(F)F)c4)cc3)CC2)C1` [Navitoclax] + C[C@@H](Oc1cc(-c2cnn(C3CCNCC3)c2)cnc1N)c1c(Cl)ccc(F)c1Cl [Crizotinib] (partner 1 µM) showed a relative viability ([1]; first compound 0.005 µM) of 0.549, a relative viability ([1]; first compound 0.01581 µM) of 0.691 and a relative viability ([1]; first compound 0.05 µM) of 0.39. For the same compound, the relative viability ([1]; first compound 0.1581 µM) was 0.588, the relative viability ([1]; first compound 0.5 µM) was 0.638 and the relative viability ([2]; first compound 0.005 µM) was 0.89. The relative viability ([2]; first compound 0.01581 µM) was 1, the relative viability ([2]; first compound 0.05 µM) was 0.848 and the relative viability ([2]; first compound 0.1581 µM) was 0.853. For the same compound, the relative viability ([2]; first compound 0.5 µM) was 0.866, the relative viability ([3]; first compound 0.005 µM) was 0.422 and the relative viability ([3]; first compound 0.01581 µM) was 0.489. The relative viability ([3]; first compound 0.05 µM) was 0.538, the relative viability ([3]; first compound 0.1581 µM) was 0.429 and the relative viability ([3]; first compound 0.5 µM) was 0.575. The relative viability ([4]; first compound 0.005 µM) was 0.862, the relative viability ([4]; first compound 0.01581 µM) was 0.838 and the relative viability ([4]; first compound 0.05 µM) was 0.861. It also gave a relative viability ([4]; first compound 0.1581 µM) of 0.822, a relative viability ([4]; first compound 0.5 µM) of 0.909 and a relative viability ([5]; first compound 0.005 µM) of 0.646. For the same compound, the relative viability ([5]; first compound 0.01581 µM) was 0.583, the relative viability ([5]; first compound 0.1581 µM) was 0.636 and the relative viability ([5]; first compound 0.5 µM) was 0.401. The relative viability ([6]; first compound 0.005 µM) was 0.668, the relative viability ([6]; first compound 0.01581 µM) was 0.65 and the relative viability ([6]; first compound 0.05 µM) was 0.694. For the same compound, the relative viability ([6]; first compound 0.1581 µM) was 0.738, the relative viability ([6]; first compound 0.5 µM) was 0.662 and the relative viability ([7]; first compound 0.005 µM) was 0.877. For the same compound, the relative viability ([7]; first compound 0.01581 µM) was 0.939, the relative viability ([7]; first compound 0.05 µM) was 0.78 and the relative viability ([7]; first compound 0.1581 µM) was 0.821. The relative viability ([7]; first compound 0.5 µM) was 0.839, the relative viability ([8]; first compound 0.005 µM) was 1.04 and the relative viability ([8]; first compound 0.01581 µM) was 1.05. The relative viability ([8]; first compound 0.05 µM) was 1.07, the relative viability ([8]; first compound 0.1581 µM) was 1.01 and the relative viability ([8]; first compound 0.5 µM) was 0.972. The relative viability ([9]; first compound 0.005 µM) was 1.19, the relative viability ([9]; first compound 0.01581 µM) was 1.4 and the relative viability ([9]; first compound 0.05 µM) was 1.19. It also gave a relative viability ([9]; first compound 0.1581 µM) of 1.14, a relative viability ([9]; first compound 0.5 µM) of 0.983 and a relative viability ([10]; first compound 0.005 µM) of 1.37. It also gave a relative viability ([10]; first compound 0.1581 µM) of 0.99, a relative viability ([10]; first compound 0.5 µM) of 1.08 and a relative viability ([11]; first compound 0.005 µM) of 0.618. For the same compound, the relative viability ([11]; first compound 0.01581 µM) was 0.712, the relative viability ([11]; first compound 0.05 µM) was 0.686 and the relative viability ([11]; first compound 0.1581 µM) was 0.664. It also gave a relative viability ([11]; first compound 0.5 µM) of 0.643, a relative viability ([12]; first compound 0.005 µM) of 0.567 and a relative viability ([12]; first compound 0.01581 µM) of 0.595. For the same compound, the relative viability ([12]; first compound 0.05 µM) was 0.634, the relative viability ([12]; first compound 0.1581 µM) was 0.506 and the relative viability ([12]; first compound 0.5 µM) was 0.743. For the same compound, the relative viability ([13]; first compound 0.005 µM) was 0.794, the relative viability ([13]; first compound 0.01581 µM) was 0.885 and the relative viability ([13]; first compound 0.05 µM) was 1.01. It also gave a relative viability ([13]; first compound 0.1581 µM) of 0.802, a relative viability ([13]; first compound 0.5 µM) of 0.817 and a relative viability ([14]; first compound 0.005 µM) of 0.915. The relative viability ([14]; first compound 0.01581 µM) was 0.881, the relative viability ([14]; first compound 0.05 µM) was 0.877 and the relative viability ([14]; first compound 0.1581 µM) was 0.879. For the same compound, the relative viability ([14]; first compound 0.5 µM) was 0.858, the relative viability ([15]; first compound 0.005 µM) was 0.636 and the relative viability ([15]; first compound 0.01581 µM) was 0.699. For the same compound, the relative viability ([15]; first compound 0.05 µM) was 0.814, the relative viability ([15]; first compound 0.1581 µM) was 0.707 and the relative viability ([15]; first compound 0.5 µM) was 0.805. The relative viability ([16]; first compound 0.005 µM) was 0.716, the relative viability ([16]; first compound 0.01581 µM) was 0.794 and the relative viability ([16]; first compound 0.05 µM) was 0.674. It also gave a relative viability ([16]; first compound 0.1581 µM) of 0.687, a relative viability ([16]; first compound 0.5 µM) of 0.981 and a relative viability ([17]; first compound 0.005 µM) of 1.09. For the same compound, the relative viability ([17]; first compound 0.01581 µM) was 1.16, the relative viability ([17]; first compound 0.05 µM) was 0.944 and the relative viability ([17]; first compound 0.1581 µM) was 0.907. For the same compound, the relative viability ([17]; first compound 0.5 µM) was 1.01, the relative viability ([18]; first compound 0.005 µM) was 0.905 and the relative viability ([18]; first compound 0.01581 µM) was 0.977. For the same compound, the relative viability ([18]; first compound 0.05 µM) was 0.951, the relative viability ([18]; first compound 0.1581 µM) was 0.886 and the relative viability ([18]; first compound 0.5 µM) was 0.952. The relative viability ([19]; first compound 0.005 µM) was 0.368, the relative viability ([19]; first compound 0.01581 µM) was 0.376 and the relative viability ([19]; first compound 0.1581 µM) was 0.345. It also gave a relative viability ([19]; first compound 0.5 µM) of 0.322, a relative viability ([20]; first compound 0.005 µM) of 0.802 and a relative viability ([20]; first compound 0.01581 µM) of 0.848. The relative viability ([20]; first compound 0.05 µM) was 0.883, the relative viability ([20]; first compound 0.1581 µM) was 0.822 and the relative viability ([20]; first compound 0.5 µM) was 0.786. The relative viability ([21]; first compound 0.005 µM) was 0.653, the relative viability ([21]; first compound 0.01581 µM) was 0.602 and the relative viability ([21]; first compound 0.05 µM) was 0.2. It also gave a relative viability ([21]; first compound 0.1581 µM) of 0.681, a relative viability ([21]; first compound 0.5 µM) of 0.705 and a relative viability ([22]; first compound 0.005 µM) of 1.03. For the same compound, the relative viability ([22]; first compound 0.01581 µM) was 1.15, the relative viability ([22]; first compound 0.05 µM) was 1.02 and the relative viability ([22]; first compound 0.1581 µM) was 1.05. It also gave a relative viability ([22]; first compound 0.5 µM) of 1.03.
